Data reported in patent US20240383971A1, “Anti-DFS70 Autoantibodies and methods of attenuating formation of nets” (McMaster University, priority 2023, published 2024).

Test system: neutrophils isolated from healthy donors
Assay: In vitro NETosis assay (SEM images, MATLAB quantification)
Format: cell-based, human
Conditions: healthy donor neutrophils pooled n=4, 6 hrs

SMILES	induction of NETosis in healthy neutrophils
CNc1ccc2oc(C[C@H]3O[C@@]4(CC[C@H]3C)O[C@H]([C@H](C)C(=O)c3ccc[nH]3)[C@H](C)C[C@H]4C)nc2c1C(=O)O [A23187]	stimulated to NETosis
CCCCCCCCCCCCCC(=O)O[C@@H]1[C@@H](C)[C@@]2(O)[C@@H](C=C(CO)C[C@]3(O)C(=O)C(C)=C[C@@H]23)[C@@H]2C(C)(C)[C@]12OC(C)=O [PMA, Phorbol 12-myristate 13-acetate]	stimulated to NETosis
